This note sets out measurements from paper PMC10855334, “Molecular and Functional Characterization of Three General Odorant-Binding Protein 2 Genes in Cydia pomonella (Lepidoptera: Tortricidae)” (International Journal of Molecular Sciences, 2024).

One assay concerns the target CpomGOBP2a (Cydia pomonella, UniProt J7G4I1). Put plainly: Fluorescence competitive binding assay (1-NPN probe), recombinant CpomGOBP2a. Particulars: for Ki: 2.0 µM protein and 2.0 µM 1-NPN, 50 mM Tris-HCl pH 7.4, competitor 2-20 µM, read-out: dissolution constants (Ki). An excerpt: (§1) The proteins were recombinantly expressed using an Escherichia coli expression system with an N-His tag. The complete coding regions lacking the signal peptide sequence of CpomGOBP2a, CpomGOBP2b, and CpomGOB2c were subcloned into the NdeI/EcoRI restricted and dephosphorylated pET-28b expression vector. The constructed plasmid was subsequently transformed into E. coli BL21 (DE3) competent cells for further expression. The size and purity of the target proteins were confirmed using sodium dodecyl sulfate-polyacrylamide gel electrophoresis (SDS-PAGE) and Western blot. The proteins were stored at −80 °C for subsequent fluorescence competitive binding experiments.
Fluorescence competitive binding assays were conducted on a Synergy4 (BioTek Instruments, Winooski, VT, USA) microplate reader using the F96 Black ELIAS Plate (Xinyou Biotechnology, Hangzhou, China). Probe 1-NPN and the tested ligands were dissolved in spectrophotometric-grade methanol to generate 1.0 mM stock solutions. The fluorescence probe 1-NPN was excited at 337 nm, and emission spectra were recorded between 390 and 490 nm. Initially, to test the binding constants of 1-NPN to the CpomGOBP2, a 2.0 µM solution of protein in 50 mM Tris-HCl (pH = 7.4) was titrated with 1 mM of 1-NPN to achieve various concentrations. Next, the competitive binding of each odorant (Table 1) was examined using 1-NPN as a fluorescent reporter and the odorant as a competitor. The concentrations of protein and 1-NPN were both 2.0 µM; the odorant was included after the protein and 1-NPN were added into the well of the ELIAS Plate for 2 min. The final concentrations of each competitor were 2, 4, 6, 8, 10, 12, 14, 16, 18, and 20 µM. After 2 min of odorant addition, the fluorescence intensity was measured and documented. The volume of mixed solution in each well was maintained at 250 µL. Each interaction was conducted in triplicate.

The target in assay [1] is CpomGOBP2c (Cydia pomonella). Put plainly: Fluorescence competitive binding assay (1-NPN probe), recombinant CpomGOBP2c. Particulars: 2.0 µM protein in 50 mM Tris-HCl pH 7.4 titrated with 1-NPN, read-out: dissociation constant with 1-NPN.
From the text: as §1
(§2) Fluorescence competitive binding assays were conducted on a Synergy4 (BioTek Instruments, Winooski, VT, USA) microplate reader using the F96 Black ELIAS Plate (Xinyou Biotechnology, Hangzhou, China). Probe 1-NPN and the tested ligands were dissolved in spectrophotometric-grade methanol to generate 1.0 mM stock solutions. The fluorescence probe 1-NPN was excited at 337 nm, and emission spectra were recorded between 390 and 490 nm. Initially, to test the binding constants of 1-NPN to the CpomGOBP2, a 2.0 µM solution of protein in 50 mM Tris-HCl (pH = 7.4) was titrated with 1 mM of 1-NPN to achieve various concentrations. […] After 2 min of odorant addition, the fluorescence intensity was measured and documented. […]

The target of a further assay is CpomGOBP2b (Cydia pomonella, UniProt J7GAV3). The assay can be described thus: Fluorescence competitive binding assay (1-NPN probe), recombinant CpomGOBP2b. As to conditions: 2.0 µM protein in 50 mM Tris-HCl pH 7.4 titrated with 1-NPN, read-out: dissociation constant with 1-NPN.
From the text: as §1, §2

Broadly, the Ki is the dissociation constant of the complex between target and ligand, obtained from inhibition or displacement.

Chain of CpomGOBP2a (J7G4I1 entry or part of it): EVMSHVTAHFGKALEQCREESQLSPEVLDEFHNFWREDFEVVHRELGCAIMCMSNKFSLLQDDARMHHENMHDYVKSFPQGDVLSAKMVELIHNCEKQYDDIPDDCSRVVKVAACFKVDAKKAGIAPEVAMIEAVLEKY
Chain of CpomGOBP2b (J7GAV3 entry or part of it): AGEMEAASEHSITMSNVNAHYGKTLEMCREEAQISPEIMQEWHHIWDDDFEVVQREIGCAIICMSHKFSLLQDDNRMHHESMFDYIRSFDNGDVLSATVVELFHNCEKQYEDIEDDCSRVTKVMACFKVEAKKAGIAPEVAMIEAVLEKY
Chain of CpomGOBP2c (Cydia pomonella) (J7GAV3 entry or part of it): as above

For `c1ccc(Nc2cccc3ccccc23)cc1` [1-NPN], the Kd at CpomGOBP2a (2.0 µM protein in 50 mM Tris-HCl pH 7.4 titrated with 1-NPN, read-out: dissociation constant with 1-NPN) was determined as 12.6 µM; in assay [1] it was 18.9 µM; on CpomGOBP2b, 27.5 µM.
Turning to `CCCCCCCC(=O)OCCCC` [butyl octanoate], the inhibition constant (Ki) at CpomGOBP2a amounted to 8.6 µM.
Take `C/C=C/C=C/CCCCCCCO` [codlemone]: at CpomGOBP2a, the inhibition constant (Ki) was 22.7 µM.
`CCCCC/C=C\C=C\C(=O)OCC` [ethyl (2E,4Z)-deca-2,4-dienoate]: at CpomGOBP2a, the Ki was determined as 9.15 µM.
The same measure, in the same setting: to `CC(=O)CC/C=C(\C)CCC=C(C)C` [geranylacetone] belongs 22.9 µM.
